Each compound was assayed against T1, human recombinant 15-PGDH (Homo sapiens, UniProt P15428) (assay: Inhibition of recombinant 15-PGDH enzymatic activity (NADH quantification after addition of PGE2 and NAD+)). Details: recombinant 15-PGDH; 15 min pre-incubation, 60-minute reaction, room temperature, pH 7.5; PGE2 and NAD+; read-out: PGDH-Lumi IC50.
T1 sequence (P15428 1-266): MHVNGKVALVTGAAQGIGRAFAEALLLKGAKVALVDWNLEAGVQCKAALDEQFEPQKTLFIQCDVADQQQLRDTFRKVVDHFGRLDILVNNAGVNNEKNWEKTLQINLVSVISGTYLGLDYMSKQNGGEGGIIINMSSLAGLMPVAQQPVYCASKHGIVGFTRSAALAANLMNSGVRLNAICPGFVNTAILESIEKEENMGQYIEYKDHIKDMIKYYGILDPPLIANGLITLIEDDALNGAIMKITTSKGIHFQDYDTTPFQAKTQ
Assay type: biochemical
Protocol: The compound dose-response of its inhibition of 15-PGDH activity was determined in human recombinant 15-PGDH enzymatical assays. These assays measured 15-PGDH enzymatic activity by quantifying the amount of NADH produced during a 60-minute reaction initiated by the addition of PGE2 and NAD+. Under the conditions of these experiments, the increase of NADH signal upon oxidation of PGE2 and reduction of NAD+ was linearly proportional to 15-PGDH enzymatic activity. The recombinant human, mouse, rat and dog 15-PGDH enzymatic assays were performed in a 25 μL volume of reaction buffer containing 50 mM Tris, pH 7.5, 0.01% Tween-20 and 100 μM DTT in a 384-well microtiter plate. In concentration-response experiments with tested compounds, 22 concentrations from 2-fold serial dilutions in DMSO were pre-incubated with 15-PGDH for 15 minutes at room temperature. Then, PGE2 and ß-NAD+ were added to initiate the 15-PGDH reaction. After 60 minutes at room temperature, the reaction was quenched and NADH signal was measured using a microtiter plate reader.
The following data (Table 11-1) provides the IC50 of each compound for inhibiting enzymatic activity of recombinant 15-PGDH in the assay described above.
`Cn1cc2cc(-c3cc(C4CC4)c4cc(C(=O)N5CCOCC5)sc4n3)cnc2n1` [Compound B10, (4-cyclopropyl-6-(2-methyl-2H-pyrazolo[3,4-b]pyridin-5-yl)thieno[2,3-b]pyridin-2-yl)(4-morpholinyl)methanone] showed an IC50 of 0.917 nM. With `Cn1cc2cc(-c3cc(C4CC4)c4cc(C(=O)N5CCCC(F)(F)C5)sc4n3)cnc2n1` [Compound B11, (4-cyclopropyl-6-(2-methyl-2H-pyrazolo[3,4-b]pyridin-5-yl)thieno[2,3-b]pyridin-2-yl)(3,3-difluoro-1-piperidinyl)methanone] the IC50 was 0.317 nM. `COCCN(C)C(=O)c1cc2c(C3CC3)cc(-c3cnc4nn(C)cc4c3)nc2s1` [Compound B12, 4-cyclopropyl-N-(2-methoxyethyl)-N-methyl-6-(2-methyl-2H-pyrazolo[3,4-b]pyridin-5-yl)thieno[2,3-b]pyridine-2-carboxamide] was tested, and the IC50 was 0.704 nM. `Cn1cc2cc(-c3cc(-c4ccnn4C)c4cc(C(=O)N5CCOCC5)sc4n3)cnc2n1` [Compound B13, (6-(2-methyl-2H-pyrazolo[3,4-b]pyridin-5-yl)-4-(1-methyl-1H-pyrazol-5-yl)thieno[2,3-b]pyridin-2-yl)(4-morpholinyl)methanone] gave an IC50 of 1.26 nM. `Cn1cc2cc(-c3cc(-c4ccnn4C)c4cc(C(=O)N5CCSCC5)sc4n3)cnc2n1` [Compound B14, (6-(2-methyl-2H-pyrazolo[3,4-b]pyridin-5-yl)-4-(1-methyl-1H-pyrazol-5-yl)thieno[2,3-b]pyridin-2-yl)(4-thiomorpholinyl)methanone] was tested, and the IC50 was 0.519 nM. In the case of `CN(C(=O)c1cc2c(C3CC3)cc(-c3cnc4nn(C)cc4c3)nc2s1)C1CCC1` [Compound B15, N-cyclobutyl-4-cyclopropyl-N-methyl-6-(2-methyl-2H-pyrazolo[3,4-b]pyridin-5-yl)thieno[2,3-b]pyridine-2-carboxamide], the IC50 is reported as 0.475 nM. Work on `Cn1cc2cc(-c3cnc4sc(C(=O)N5CCCCC5)cc4c3)cnc2n1` [Compound B16, (5-(2-methyl-2H-pyrazolo[3,4-b]pyridin-5-yl)thieno[2,3-b]pyridin-2-yl)(1-piperidinyl)methanone] yielded an IC50 of 9.51 nM. Compound `C[C@H]1COCCN1C(=O)c1cc2c(C3CC3)cc(-c3cnc4nn(C)cc4c3)nc2s1` [Compound B17S, (4-cyclopropyl-6-(2-methyl-2H-pyrazolo[3,4-b]pyridin-5-yl)thieno[2,3-b]pyridin-2-yl)((3S)-3-methyl-4-morpholinyl)methanone] has an IC50 of 1.17 nM. With `CC(C)(C)OC(=O)N1CCN(c2ncc(-c3cc(C4CC4)c4cc(C(=O)N5CCCCC5)sc4n3)cn2)CC1` [Compound B18, 2-methyl-2-propanyl 4-(5-(4-cyclopropyl-2-(1-piperidinylcarbonyl)thieno[2,3-b]pyridin-6-yl)-2-pyrimidinyl)-1-piperazinecarboxylate] the IC50 was 1.58 nM. `Cn1cc2cc(-c3cc(C4CC4)c4cc(C(=O)N5CCC(F)(F)CC5)sc4n3)cnc2n1` [Compound B19, (4-cyclopropyl-6-(2-methyl-2H-pyrazolo[3,4-b]pyridin-5-yl)thieno[2,3-b]pyridin-2-yl)(4,4-difluoro-1-piperidinyl)methanone] showed an IC50 of 0.853 nM. In the case of `Cn1cc2cc(-c3cc(C4CC4)c4cc(C(=O)N5CCC(C(F)(F)F)CC5)sc4n3)cnc2n1` [Compound B20, (4-cyclopropyl-6-(2-methyl-2H-pyrazolo[3,4-b]pyridin-5-yl)thieno[2,3-b]pyridin-2-yl)(4-(trifluoromethyl)-1-piperidinyl)methanone], the IC50 is reported as 1.11 nM. In the case of `Cn1cc2cc(-c3ccc4cc(C(=O)N5CCC(C(F)(F)F)CC5)sc4n3)cnc2n1` [Compound B21, (6-(2-methyl-2H-pyrazolo[3,4-b]pyridin-5-yl)thieno[2,3-b]pyridin-2-yl)(4-(trifluoromethyl)-1-piperidinyl)methanone], the IC50 is reported as 1.45 nM. `O=C(c1cc2c(C3CC3)cc(-c3cnc(N4CCNCC4)nc3)nc2s1)N1CCCCC1` [Compound B22, (4-cyclopropyl-6-(2-(1-piperazinyl)-5-pyrimidinyl)thieno[2,3-b]pyridin-2-yl)(1-piperidinyl)methanone] showed an IC50 of 3.61 nM. `Cn1cc2cc(-c3cc(C4CC4)c4cc(C(=O)N5CCCCC5)sc4n3)cnc2n1` [Compound B23, (4-cyclopropyl-6-(2-methyl-2H-pyrazolo[3,4-b]pyridin-5-yl)thieno[2,3-b]pyridin-2-yl)(1-piperidinyl)methanone] gave an IC50 of 0.215 nM. For `Cn1cc2cc(-c3cc(C4CC4)c4cc(C(=O)N5CCCOCC5)sc4n3)cnc2n1` [Compound B24, (4-cyclopropyl-6-(2-methyl-2H-pyrazolo[3,4-b]pyridin-5-yl)thieno[2,3-b]pyridin-2-yl)(1,4-oxazepan-4-yl)methanone], the IC50 was 0.428 nM. `Cn1cc2cc(-c3ccc4cc(C(=O)N5CCC(F)(F)CC5)sc4n3)cnc2n1` [Compound B25, (4,4-difluoro-1-piperidinyl)(6-(2-methyl-2H-pyrazolo[3,4-b]pyridin-5-yl)thieno[2,3-b]pyridin-2-yl)methanone] gave an IC50 of 0.352 nM. `CC1CC(F)(F)CCN1C(=O)c1cc2ccc(-c3cnc4nn(C)cc4c3)nc2s1` (centres unmarked) [Compound B27] was tested, and the IC50 was 1.7 nM. In the case of `Cn1ccc2cc(-c3cnc4sc(C(=O)N5CCCCC5)cc4c3)ccc2c1=O` [Compound B28, 2-methyl-6-(2-(1-piperidinylcarbonyl)thieno[2,3-b]pyridin-5-yl)-1(2H)-isoquinolinone], the IC50 is reported as 11.9 nM. Work on `Cn1cc2cc(-c3ccc4cc(C(=O)N5CCOCC5(C)C)sc4n3)cnc2n1` [Compound B29, (3,3-dimethyl-4-morpholinyl)(6-(2-methyl-2H-pyrazolo[3,4-b]pyridin-5-yl)thieno[2,3-b]pyridin-2-yl)methanone] yielded an IC50 of 83.6 nM. `Cn1cc2cc(-c3ccc4cc(C(=O)N5CCOCC5C#N)sc4n3)cnc2n1` (centres unmarked) [Compound B30, 4-((6-(2-methyl-2H-pyrazolo[3,4-b]pyridin-5-yl)thieno[2,3-b]pyridin-2-yl)carbonyl)-3-morpholinecarbonitrile] gave an IC50 of 212 nM. For `CC1CN(C(=O)c2cc3ccc(-c4cnc5nn(C)cc5c4)nc3s2)CCO1` (centres unmarked) [Compound B31], the IC50 was 1.34 nM. In the case of `C[C@@H]1COCCN1C(=O)c1cc2ccc(-c3ccc(=O)n(C)c3)nc2s1` [Compound B32R, 1-methyl-5-(2-(((3R)-3-methyl-4-morpholinyl)carbonyl)thieno[2,3-b]pyridin-6-yl)-2(1H)-pyridinone], the IC50 is reported as 1350 nM. `C[C@H]1COCCN1C(=O)c1cc2ccc(-c3ccc(=O)n(C)c3)nc2s1` [Compound B32S, 1-methyl-5-(2-(((3S)-3-methyl-4-morpholinyl)carbonyl)thieno[2,3-b]pyridin-6-yl)-2(1H)-pyridinone] gave an IC50 of 623 nM. Compound `C[C@@H]1COCCN1C(=O)c1cc2ccc(-c3nccs3)nc2s1` [Compound B33R, ((3R)-3-methyl-4-morpholinyl)(6-(1,3-thiazol-2-yl)thieno[2,3-b]pyridin-2-yl)methanone] has an IC50 of 4400 nM. `C[C@H]1COCCN1C(=O)c1cc2ccc(-c3nccs3)nc2s1` [Compound B33S, ((3S)-3-methyl-4-morpholinyl)(6-(1,3-thiazol-2-yl)thieno[2,3-b]pyridin-2-yl)methanone] gave an IC50 of 2650 nM. In the case of `C[C@H]1COCCN1C(=O)c1cc2ccc(-c3cc(=O)n(C)cn3)nc2s1` [Compound B34S, 3-methyl-6-(2-(((3S)-3-methyl-4-morpholinyl)carbonyl)thieno[2,3-b]pyridin-6-yl)-4(3H)-pyrimidinone], the IC50 is reported as 200 nM. `Cn1cc(-c2ccc3cc(C(=O)N4CCOCC4)sc3n2)ccc1=O` [Compound B35, 1-methyl-5-(2-(4-morpholinylcarbonyl)thieno[2,3-b]pyridin-6-yl)-2(1H)-pyridinone] was tested, and the IC50 was 576 nM. `C[C@@H]1COCCN1C(=O)c1cc2ccc(-c3cc(=O)n(C)cn3)nc2s1` [Compound B36R, 3-methyl-6-(2-(((3R)-3-methyl-4-morpholinyl)carbonyl)thieno[2,3-b]pyridin-6-yl)-4(3H)-pyrimidinone] showed an IC50 of 311 nM. With `Cn1cc2cc(-c3ccc4cc(C(=O)N5CC6CCC(C5)O6)sc4n3)cnc2n1` [Compound B37, (6-(2-methyl-2H-pyrazolo[3,4-b]pyridin-5-yl)thieno[2,3-b]pyridin-2-yl)(8-oxa-3-azabicyclo[3.2.1]octan-3-yl)methanone] the IC50 was 2.38 nM. Work on `O=C(c1cc2ccc(-c3nccs3)nc2s1)N1CCOCC1` [Compound B38, 4-morpholinyl(6-(1,3-thiazol-2-yl)thieno[2,3-b]pyridin-2-yl)methanone] yielded an IC50 of 1330 nM. `Cn1cnc(-c2ccc3cc(C(=O)N4CCOCC4)sc3n2)cc1=O` [Compound B39, 3-methyl-6-(2-(4-morpholinylcarbonyl)thieno[2,3-b]pyridin-6-yl)-4(3H)-pyrimidinone] was tested, and the IC50 was 128 nM. `Cn1cc2cc(-c3ccc4cc(C(=O)N5CCOC(C)(C)C5)sc4n3)cnc2n1` [Compound B40, (2,2-dimethyl-4-morpholinyl)(6-(2-methyl-2H-pyrazolo[3,4-b]pyridin-5-yl)thieno[2,3-b]pyridin-2-yl)methanone] was tested, and the IC50 was 1.97 nM.
